Source: patent US20240166589A1, “METHOD FOR PRODUCING FORM-II TYPE REDUCED COENZYME Q10 CRYSTAL OR CRYSTALLINE SOLID OF SAME, AND CRYSTALLIZING APPARATUS” (KANEKA CORPORATION, priority 2021, published 2024)

How the values were obtained:
[1] = Oxidation stability (relative percentage of QH) after open storage in a constant temperature bath, HPLC; type: physicochemical; conditions: open system, 1 month, relative to initial reduced coenzyme Q10 content as 100; for Relative percentage of QH (25° C., 1M): 25° C. and RH 60%; for Relative percentage of QH (40° C., 1M): 40° C. and RH 75%
Method: The oxidation stability of the reduced coenzyme Q10 crystals obtained in Examples was evaluated by the following method.
The reduced coenzyme Q10 crystals obtained in Examples were stored in an open system for one month in a constant temperature bath set at 40° C. and RH (relative humidity) of 75% and at 25° C. and RH of 60% and then subjected to high-performance liquid chromatography to calculate the content ratio of reduced coenzyme Q10 (QH) and oxidized coenzyme Q10.
The oxidation stability of reduced coenzyme Q10 crystal was calculated as a relative percentage of QH by the following formula based on the relative value with the content of reduced coenzyme Q10 for the initial reduced coenzyme Q10 crystal before storage in a constant temperature bath, i.e., the content of reduced coenzyme Q10 when measured using the crystals obtained in Examples immediately after obtaining the crystals, as 100.
Relative percentage of QH (%)=Content of reduced coenzyme Q10 after storage/Content of initial reduced coenzyme Q10×100
Conditions for the high performance liquid chromatography, by which the reduced coenzyme Q10 concentration and the oxidized coenzyme Q10 concentration were measured, are shown below.
• Column: SYMMETRY C18 (manufactured by Waters); 250 mm (length), 4.6 mm (inner diameter) • Mobile phase: C2H5OH:CH3OH=4:3 (v:v) • Detection wavelength: 210 nm • Flow rate: 1 ml/min

[2] = Saturation concentration in an alcohol; type: physicochemical
[3] = reported in Patent Literature 4; cited from earlier work

| SMILES | Relative percentage of QH (25° C., 1M) [1] [%] | Relative percentage of QH (40° C., 1M) [1] [%] | saturation concentration compared with Form I crystal [2] | stability compared with reduced coenzyme Q10 Form I crystal [3] |
| --- | --- | --- | --- | --- |
| COc1c(O)c(C)c(C/C=C(\C)CC/C=C(\C)CC/C=C(\C)CC/C=C(\C)CC/C=C(\C)CC/C=C(\C)CC/C=C(\C)CC/C=C(\C)CC/C=C(\C)CCC=C(C)C)c(O)c1OC [Example 4, reduced coenzyme Q10] | 92.2 | 90.1 | – | – |
| COc1c(O)c(C)c(C/C=C(\C)CC/C=C(\C)CC/C=C(\C)CC/C=C(\C)CC/C=C(\C)CC/C=C(\C)CC/C=C(\C)CC/C=C(\C)CC/C=C(\C)CCC=C(C)C)c(O)c1OC [Example 2, reduced coenzyme Q10] | 85.1 | 81.4 | – | – |
| COc1c(O)c(C)c(C/C=C(\C)CC/C=C(\C)CC/C=C(\C)CC/C=C(\C)CC/C=C(\C)CC/C=C(\C)CC/C=C(\C)CC/C=C(\C)CC/C=C(\C)CCC=C(C)C)c(O)c1OC [Example 3, reduced coenzyme Q10] | 89.4 | 87.3 | – | – |
| COc1c(O)c(C)c(C/C=C(\C)CC/C=C(\C)CC/C=C(\C)CC/C=C(\C)CC/C=C(\C)CC/C=C(\C)CC/C=C(\C)CC/C=C(\C)CC/C=C(\C)CCC=C(C)C)c(O)c1OC [reduced coenzyme Q10 Form II crystal, reduced coenzyme Q10] | – | – | lower than the saturation concentration of a Form I crystal | much more stable |
| COc1c(O)c(C)c(C/C=C(\C)CC/C=C(\C)CC/C=C(\C)CC/C=C(\C)CC/C=C(\C)CC/C=C(\C)CC/C=C(\C)CC/C=C(\C)CC/C=C(\C)CCC=C(C)C)c(O)c1OC [Example 1, reduced coenzyme Q10] | 91.8 | 88.1 | – | – |
